Columns and labels:
Sarcoma 45 = experiment: Antitumor activity, transplantable Sarcoma 45 (subcutaneous); assay type: in vivo; details: rats, reference medication, identical experimental conditions
Method: (§1) The antitumor activity of the medication of the present invention was studied in mice and rats with transplantable tumors of Sarcoma 37, 45, and 180, and Ehrlich ascites tumor.
(§2) Necrosis-free pieces of tumoral tissue (a peripheral part of a tumoral node) cut with scissors to form a homogeneous mass served as transplantants for solid models (Sarcomas 37, 45 and 180). A sterile physiological solution in the proportion of 1:3-1:4 was added to the tumor and the resulting suspension was introduced with a syringe subcutaneously to the animals. The transplantation was conducted in sterile box conditions using 12-14 days' tumor as a donor. The transplantation of sarcomas 37 and 180 was performed by means of subcutaneous introduction of 0.2-0.3 ml of the 20% tumoral suspension in a physiological solution to the axillary crease of each mouse. For the transplantation of Sarcoma 45, by 0.4-0.5 ml of suspension of tumoral cells was introduced subcutaneously (to the lateral area) of each rat. On the 4th-5th days after inoculation, when the transplanted tumor is usually pea-size, the animals were divided into test and control groups each having 8 mice and 10 rats. […] A day after the last injection of the medication, the animals were killed with ether, weighed, and the weight of tumors was measured separately. […]

[1] = in vivo
Method: (§3) In the study of antitimor properties of the medication of the present invention, the medication was used in doses of 20 and 40 ml/kg, and 10 and 30 ml/kg in the tests on mice and rats, respectively. The general toxic action which the medication had on the organism of the tested animals was estimated by their outer appearance and behavior during the experiment, as well as by the Growth Ratio (GR) expressed in percent.

Ehrlich ascites tumor = experiment: Antitumor activity, transplantable Ehrlich ascites tumor (intraperitoneal); assay type: in vivo; details: mice, reference medication, optimal therapeutic dose of 25 ml/kg
Method: as §1, §3
The numerical data obtained was processed statistically by Student-Fisher's method.

Sarcoma 37 = experiment: Antitumor activity, transplantable Sarcoma 37 (subcutaneous); assay type: in vivo; details: mice, reference medication, identical experimental conditions
Method: as §1, §2

Sarcoma 180 = experiment: Antitumor activity, transplantable Sarcoma 180 (subcutaneous); assay type: in vivo; details: mice, reference medication, identical experimental conditions
Method: as §1, §2

O=c1[nH]cc(F)c(=O)[nH]1 [5-fluorouracil]
inhibition of tumor growth (Sarcoma 45): 32%
GR, span over all tests [1]: −7.3 to −11
antitumor effect (inhibition of ascit accumulation) (Ehrlich ascites tumor): 70%
therapeutic effect (inhibition of tumor growth) (Sarcoma 37): 70%
inhibition of tumor growth (Sarcoma 180): 45%

— patent US20070224291A1, “Cancer treatment” (priority 2005, published 2007)
